US11801284B2, “Compositions and methods for treating motor neuron diseases” (The Trustees of Columbia University in the City of New York, priority 2017, dated 2023)

Key:
[1] = tested on: luciferase; assay: luciferase refolding assay (chaperone activity); type: biochemical; conditions: crude yeast lysate from cells transfected with Hspa8^G470R or WT construct; FIG. 4
Text: Expt. 2A: Does the G470R mutation affect Hspa8 chaperone activity? There is a fine balance between the chaperone activity of Hspa8, which involves ATP and the co-chaperone proteins Sgt (small […] tetratricopeptide repeat-containing protein) and CSP (cysteine string protein), and its role in microautophagy, which is effected independently of ATP and the co-chaperones^36. Altering the ratio of Hspa8 with respect to its co-chaperones, or introducing mutations in certain Hspa8 domains, can shift the balance towards or away from microautophagy and thus alter neurotransmission at the NMJ. For instance, mutations in the ATPase domain disrupt chaperone activity but leave the role of Hspa8 in microautophagy intact. In contrast, mutations in the C-terminal domain of Hspa8, which mediate the interaction of the protein with the lysosomal/endosomal membrane, abolish microautophagy but fail to affect the ability of the protein to refold proteins (chaperone activity). […] To test this, we will examine the ability of Hspa8^G470R to refold luciferase. […] The bioluminescence from the luciferase will be assayed, following the addition of Luciferase Assay reagent (Promega), at regular intervals in a luminometer or plate reader. […]

[2] = tested on: SMN; assay: SMN levels in spinal cord tissue of SMA mice by western blotting; type: in vivo; conditions: PND10 SMA mice, western blot, β-tubulin loading control; FIG. 7
Protocol: PND10 mice of the indicated genotypes were euthanized, and the spinal cord tissue extracted to determine SMN levels by western blotting. β-tubulin was used as a loading control. Band intensities were determined using the NIH ImageJ software.

[3] = tested on: S. cerevisae; assay: in vivo microautophagy assay (vacuolar membrane invagination and intraluminal vesicle formation in yeast); type: cell-based; conditions: in vivo study employing WT and Hspa8^G470R proteins
Text: Expt. 2B: Does the G470R mutation affect Hspa8-dependent microautophagy? Hspa8-dependent microautophagy relies on the ability of the protein to bind the lysosomal/endosomal membrane. In so doing, Hspa8 deforms the membrane to form tubules, a phenomenon that can be quantified using a “tubulation” assay^36. […] To test this, we will subject the two proteins and a control, Hspa8^3KA, that fails to deform membranes^36, to the tubulation assay. Essentially, bacterial lysate from E. coli over-expressing the different Hspa8 molecules will be combined with fluorescently labeled giant unilamellar vesicles (GUVs) made from a defined mixture of lipids that roughly mimic synaptic membranes^49, and the ability of the proteins to trigger membrane deformation/tubule formation will be assessed by fluorescence microscopy. To complement these in vitro experiments, we will assess the ability of Hspa8^G470R protein to deform membranes in vivo. For this, the protein and relevant controls will be separately expressed in S. cerevisae and vacuolar membrane invagination and intraluminal vesicle formation determined using a co-expressed Vba1-GFP construct as a marker^50.

Substance: Hspa8^G470R: mutant Hsp70 family member protein Hspa8 with G470R missense mutation in the substrate binding domain
- chaperone activity (efficiency relative to lysate containing WT Hspa8) [1]: only a third as efficient
- SMN level in spinal cord tissue [2]: increases SMN
- competence in microautophagy assay [3]: competent
